Consider six compounds from PMC5388777 (Frontiers in Psychiatry, 2017).

In series [1] the test system is male ICR mice. In words: Tail flick assay (thermal nociception). The conditions noted are these: for Tail flick latency after antagonist alone: given 24 h before vehicle, JDTic 10 mg/kg, beta-FNA 40 mg/kg s.c.; for Antinociception (%MPE) versus vehicle: 60-min post-injection, s.c., PPL-101 0.3-10 mg/kg, PPL-103 0.3-3 mg/kg. Format: in vivo. On the technique in general: Hot-plate and tail-flick tests time the reaction to a heat stimulus.

Series [2] has as its system male Sprague-Dawley rats. Put plainly: Plantar test (paw withdrawal latency). Format: in vivo. The conditions noted are these: U-69,593 0.3 mg/kg.
The target in the next series is T1, mu opioid receptor (Homo sapiens, UniProt P35372).
T1 construct: expressed in transfected cells; membranes prepared
T1 sequence (P35372 whole entry): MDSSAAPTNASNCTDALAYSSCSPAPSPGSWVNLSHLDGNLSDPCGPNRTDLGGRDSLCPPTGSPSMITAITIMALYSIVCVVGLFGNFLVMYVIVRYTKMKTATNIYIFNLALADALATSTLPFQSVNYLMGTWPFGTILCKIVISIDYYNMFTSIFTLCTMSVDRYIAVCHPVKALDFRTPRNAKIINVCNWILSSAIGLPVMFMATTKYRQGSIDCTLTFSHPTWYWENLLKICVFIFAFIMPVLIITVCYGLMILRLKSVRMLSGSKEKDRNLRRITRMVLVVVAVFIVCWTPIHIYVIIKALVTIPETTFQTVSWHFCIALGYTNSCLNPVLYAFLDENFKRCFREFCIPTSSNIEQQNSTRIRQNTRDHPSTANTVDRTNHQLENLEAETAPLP
Format: biochemical.

Series [3] addresses T2, kappa opioid receptor (Homo sapiens, UniProt P41145).
T2 construct: expressed in transfected cells; membranes prepared
In words: biochemical.

The test system of series [4] is male ICR mice. In words: Conditioned place preference (CPP) paradigm. Format: in vivo. Conditions: s.c., three drug sessions; morphine 15 mg/kg, PPL-101 1-3 mg/kg, PPL-103 0.3-3 mg/kg.
In series [5] the test system is male ICR mice. In words: Global activity during CPP conditioning. Format: in vivo. The conditions noted are these: s.c.; for Global activity versus vehicle controls: morphine 15 mg/kg (first injection), PPL-101 and PPL-103 3.0 mg/kg (first and third injections).
Series [6] deals with male Sprague-Dawley rats. In words: Intravenous self-administration (FR-1 and PR schedules).
Series [7] has as its target T2, kappa opioid receptor. In words: biochemical. Conditions: Receptor binding Ki.
Series [8] deals with T3, delta opioid receptor (Homo sapiens, UniProt P41143).
T3 construct: expressed in transfected cells; membranes prepared
T3 sequence (P41143 whole entry): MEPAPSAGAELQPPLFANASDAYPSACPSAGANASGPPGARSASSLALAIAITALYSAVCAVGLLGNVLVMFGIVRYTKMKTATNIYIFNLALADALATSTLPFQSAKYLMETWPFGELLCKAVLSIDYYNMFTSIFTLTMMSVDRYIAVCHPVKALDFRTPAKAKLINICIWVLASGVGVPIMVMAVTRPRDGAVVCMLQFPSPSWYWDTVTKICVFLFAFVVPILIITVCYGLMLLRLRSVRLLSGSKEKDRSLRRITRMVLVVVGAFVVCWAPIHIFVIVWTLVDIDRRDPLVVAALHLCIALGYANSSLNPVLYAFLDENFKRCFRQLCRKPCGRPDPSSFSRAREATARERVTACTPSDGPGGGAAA
Put plainly: biochemical. Conditions: Receptor binding Ki.

The target of series [9] is T3, delta opioid receptor. In words: [35S]GTPγS binding, CHO cell membranes. Format: biochemical. Conditions: for Delta % Stim.: [35S]GTPγS binding, mean ± SEM. A general note: GTPγS resists hydrolysis and so accumulates on activated G proteins.
The next series concerns non-human primates. The conditions noted are these: ref Harris et al. unpublished observation; cited from earlier work.

Several values for one entry are separate records, joined by “and”; a condition that tells them apart may be missing. Equal entries are not always repeated.

T2 sequence (P41145 whole entry): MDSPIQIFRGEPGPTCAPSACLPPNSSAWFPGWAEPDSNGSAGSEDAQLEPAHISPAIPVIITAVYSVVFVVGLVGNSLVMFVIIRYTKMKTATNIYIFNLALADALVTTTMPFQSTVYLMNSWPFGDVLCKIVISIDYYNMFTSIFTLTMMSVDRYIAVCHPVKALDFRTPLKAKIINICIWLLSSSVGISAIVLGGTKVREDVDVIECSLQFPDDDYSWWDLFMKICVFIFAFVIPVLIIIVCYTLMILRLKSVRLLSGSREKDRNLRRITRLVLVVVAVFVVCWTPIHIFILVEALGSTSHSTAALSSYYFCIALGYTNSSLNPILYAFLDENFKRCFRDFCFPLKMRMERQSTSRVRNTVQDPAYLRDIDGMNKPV

For `CC(C)[C@@H](CN1CC[C@@](C)(c2cccc(O)c2)[C@@H](C)C1)NC(=O)[C@H]1Cc2ccc(O)cc2CN1` [JDTic, (3R)-7-hydroxy-N-[(1S)-1-[[(3R,4R)-4-(3-hydroxyphenyl)-3,4-dimethyl-1-piperidinyl]methyl]-2-methylpropyl]-1,2,3,4-tetrahydro-3-isoquinoline-carboxamide], the “Tail flick latency after antagonist alone” value in the series on male ICR mice [1] is listed as “have no effect on tail flick latency in mice”. Also, the “Blockade of U-69,593-induced antinociception” value with male Sprague-Dawley rats [2] (JDTic 10 mg/kg single dose) is “able to block the antinociceptive effect U-69,593”. For the same compound, the “Antinociception (paw withdrawal latency)” value with male Sprague-Dawley rats [2] (JDTic 10 mg/kg single treatment one week before) is “by itself did not”.

In the case of `C[C@@H](NC(=O)[C@@H](N)Cc1ccc(O)cc1)C(=O)NCC(=O)N(C)[C@@H](Cc1ccccc1)C(=O)NCCO` [DAMGO, [D-Ala2, N-MePhe4, Gly-ol]-enkephalin, reference compound], the “Mu % Stim.” value at mu opioid receptor was 100%. In addition, the “Kappa % Stim.” value on kappa opioid receptor [3] came to 62 ± 21.0%.

Consider `CN1CC[C@]23c4c5ccc(O)c4O[C@H]2[C@@H](O)C=C[C@H]3[C@H]1C5` [Morphine, reference compound], for which the “Time course of antinociception (%MPE) versus vehicle” value with male ICR mice [1] (0.5, 1, 2, 4 h post-injection, PPL-101 0.3-10 mg/kg s.c., morphine 15 mg/kg) is reported as “anticipated increase in %MPE at all the time points compared to vehicle controls”. For the same compound, the “Antinociception (%MPE) versus vehicle” value with male ICR mice [1] (morphine 15 mg/kg) was “produced the maximal effect in increase in tail flick relative to vehicle controls”. Further, in the series on male ICR mice [1] (JDTic 10 mg/kg s.c. 24 h before), the “Effect of JDTic pretreatment on the compound's antinociception” value is on record as “not altered by the kappa antagonist JDTic”. In the series with male ICR mice [1] (beta-FNA 40 mg/kg s.c. 24 h before), the “Effect of beta-FNA pretreatment on the compound's antinociception” value is on record as “completely inhibited by the mu opioid antagonist beta-FNA”. In addition, in the series with male ICR mice [4], the “Acquisition of CPP (difference score) versus vehicle controls” value is “exhibited a significant CPP”. Moreover, the “Global activity versus vehicle controls” value with male ICR mice [5] is recorded as “increase in global activity after the first drug injection relative to vehicle controls”. Besides, in the series with male ICR mice [5] (morphine 15 mg/kg, PPL-101 3 mg/kg), the “Global activity after third versus first drug injection” value is reported as “increase in activity following the third drug injection relative to the first drug injection”. The “Effect of JDTic on self-administration of the compound” value in the series on male Sprague-Dawley rats [6] (100 µg/kg/infusion, FR1TO20, JDTic 10 mg/kg i.p., seven sessions versus baseline) is given as “no significant effect of JDTic on morphine self-administration”. Besides, the “Average responses on the morphine-associated lever” value in the series on male Sprague-Dawley rats [6] (100 µg/kg/infusion, last 3 days prior to PPL-101 self-administration, mean ± SEM) is 29.0 ± 5.8 and 27.2 ± 6.1 and 32.2 ± 12.6.

For orientation: Ki means a measure of affinity in units of concentration, obtained from inhibition or displacement. Low readings indicate a stronger hold on the target, high ones a looser hold on the target. `C[C@H]1[C@H]2Cc3ccc(O)cc3[C@]1(C)CCN2CC1CC1` [Cyclazocine, cycloproplymethyl-benzomorphan, reference compound]: the inhibition constant Ki on kappa opioid receptor [7] came to 0.1 ± 0.02 nM; at delta opioid receptor [8], 0.8 ± 0.05 nM. Also, the “Mu % Stim.” value on mu opioid receptor was found to be 33 ± 18%. The “Kappa % Stim.” value on kappa opioid receptor [3] was determined as 80 ± 9%. Further, the “Delta % Stim.” value on delta opioid receptor [9] is on record as 82 ± 9%.

Take `COC(=O)C=CC(=O)NC1CCC2(O)C3Cc4ccc(O)c5c4C2(CCN3CC2CC2)C1O5.Cl` (stereo not drawn) [beta-FNA, beta-funaltrexamine HCl, reference compound]: in the series on male ICR mice [1], the “Tail flick latency after antagonist alone” value was “have no effect on tail flick latency in mice”.

The EC50 is the concentration at which the effect is half-maximal. Low readings indicate a more potent agent, high ones a less potent agent. Compound `CC(C1CC1)N1CCC23CCCCC2C1Cc1ccc(O)cc13` (stereo not drawn) [PPL-103, α-methyl-cyclopropylmethyl-morphinan] registered a Ki on kappa opioid receptor [7] of 2.47 ± 0.105 nM. Also, affinity at delta opioid receptor [8] was put at a Ki of 0.29 ± 0.03 nM. Further, on kappa opioid receptor [3], a half-maximal response (EC50) required 9.01 ± 2.64 nM and the “Kappa % Stim.” value turned out to be 39.8 ± 3.9%. Moreover, on delta opioid receptor [9], the response was half-maximal at 2.99 ± 0.92 nM (EC50) and the “Delta % Stim.” value is listed as 41.7 ± 5.0%. The “Antinociception (%MPE) versus vehicle” value in the series on male ICR mice [1] (morphine 15 mg/kg) is reported as “potent antinociception at all doses tested”. Moreover, in the series with male ICR mice [1] (mice), the “Dose giving maximal antinociception equivalent to morphine, as fraction of morphine's dose” value is 1/10. Moreover, in the series with male ICR mice [4], the “Acquisition of CPP (difference score) versus vehicle controls” value is on record as “did not reveal any significant difference”. The “Global activity versus vehicle controls” value in the series on male ICR mice [5] is “decreases in global activity relative to vehicle controls following the first and third drug injections”. Moreover, the “Substitution for morphine in single-dose suppression test” value in the series on non-human primates was “substituted for morphine”. In addition, in the series with male Sprague-Dawley rats [6] (30-100 µg/kg/infusion i.v., versus morphine 100 µg/kg/infusion), the “Number of infusions under PR schedule” value was “significantly decreased compared to the morphine group”. For the same compound, the “Self-administration under FR-1 schedule when substituted for morphine” value with male Sprague-Dawley rats [6] (30 and 100 µg/kg/infusion i.v., versus morphine 100 µg/kg/infusion) is “markedly decreased as compared to responses for morphine across all test sessions”.
